This note sets out measurements from US20260078114A1, “COMPOUND USED AS INHIBITOR OF CDK4 KINASE AND USE THEREOF” (TYK MEDICINES, INC., priority 2022, published 2026).

One data set deals with CDK6/CyclinD3 (Homo sapiens, UniProt Q00534). The experiment in a line: Kinase activity test (mobility shift assay, EZ Reader), CDK6. Type of data set: biochemical. Conditions: CDK6/CyclinD3 5.00 nM, ATP 350 μM, FL-Peptide34.
Data set [1] has as its system human mantle cell lymphoma cell JEKO-1. The experiment in a line: Cellular antiproliferative assay (MTT, 5 days), JEKO-1. The data set is classed as cell-based. Conditions: Homo sapiens, 120 h, JEKO-1 cells, 5 days incubation. The gist of the method: (§1)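 MTT read-out at 570 nm after 3 h MTT incubation and isopropanol/HCl/NP-40 solubilisation; cells seeded at 50,000 cells/ml in DMEM with 10% FBS, 37 °C, 5% CO2, compound exposure 5 days. Viability calculated relative to 0.1% DMSO control and blank medium.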

The subject of data set [2] is ovarian cancer cell A2780. The data set can be described thus: Cellular antiproliferative assay (MTT, 5 days), A2780. The data set is classed as cell-based, human. The note with it: Homo sapiens, 120 h, A2780 cells, 5 days incubation. The gist of the method: as §1
Data set [3] relates to Human breast cancer cell MCF-7. The data set can be described thus: Cellular antiproliferative assay (MTT, 5 days), MCF-7. The data set is classed as cell-based. Conditions: Homo sapiens, MCF7, 120 h, MCF-7 cells, 5 days incubation. The gist of the method: as §1
The target of another data set is CDK4/CycD1 (Homo sapiens, UniProt P11802). The data set can be described thus: Kinase activity test (mobility shift assay, EZ Reader), CDK4.
Sequence of CDK4/CycD1 (P11802 whole entry, species assumed): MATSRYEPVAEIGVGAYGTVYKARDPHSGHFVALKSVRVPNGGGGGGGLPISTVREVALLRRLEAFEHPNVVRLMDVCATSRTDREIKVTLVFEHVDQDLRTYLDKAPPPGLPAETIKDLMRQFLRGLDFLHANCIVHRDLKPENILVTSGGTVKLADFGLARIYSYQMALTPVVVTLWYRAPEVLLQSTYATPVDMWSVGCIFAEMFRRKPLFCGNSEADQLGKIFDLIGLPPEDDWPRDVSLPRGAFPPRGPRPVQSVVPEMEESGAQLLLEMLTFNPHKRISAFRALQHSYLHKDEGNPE
Sequence of CDK4/CycD1 (P24385 whole entry partner, species assumed): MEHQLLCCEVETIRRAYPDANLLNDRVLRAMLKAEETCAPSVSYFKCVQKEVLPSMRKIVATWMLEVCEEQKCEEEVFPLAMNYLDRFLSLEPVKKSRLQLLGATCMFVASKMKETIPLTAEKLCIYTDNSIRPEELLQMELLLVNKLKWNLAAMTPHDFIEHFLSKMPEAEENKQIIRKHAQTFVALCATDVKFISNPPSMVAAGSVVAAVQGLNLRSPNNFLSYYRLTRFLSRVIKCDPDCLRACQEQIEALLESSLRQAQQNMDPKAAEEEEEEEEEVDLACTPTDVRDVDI
A short description of data set [4]: Preclinical rat pharmacokinetic test. The note with it: male SD rats, gavage (p.o.), 10 mg/kg, plasma. The data set is classed as in vivo. As to the method:
Healthy adult SD rats, male, 6-8 weeks old, weighing 200-300 g. EDTA-Na2 anticoagulant. Analytical balance, animal weight scale, magnetic stirrer, freezing centrifuge, single-channel manual pipette. About 10 mg of the sample to be tested was precisely weighed, the converted 5% DMSO was added to dissolve, and then 10 percent solutol HS-15 and 85% saline were added, ultrasonic treatment was performed, vortex mixed, to obtain the solution having a concentration of 1 mg/mL; freshly prepared before use. Animals were kept in rat cages and fasted (not less than 10 h) the day before the test, but not water fasted; on the day of the test, they were weighed and labeled at the tail. Blank blood was collected before drug administration. Blood was collected from the tail vein. • Route of administration: gavage (p.o.). • Dose: 10 mg/kg • Administration volume: 10 mL/kg • Operation procedure: Hold the rat with the left hand with anti-biting gloves, made it stand upright, extent the 16-gauge gavage needle from the throat in the mouth, and then injected the drug into the stomach when there was no obvious resistance. Before and 0.5 […] and 24 h after the administration of the drug, 0.1 ml of whole blood from the test animal was collected in EDTA-Na2 anticoagulant tubes, which was mixed upside down for 3-4 times and then centrifuged at 10,000 g for 5 min at 4° C. to isolate the plasma, which was stored at -80° C. for testing. Blood was collected from the tail vein. […] Pipetted 25 μL of rat blank plasma in a centrifuge tube respectively, added 25 μL of prepared standard series solution (prepared in methanol), then added 200 μL of internal standard solution (prepared in methanol), vortexed and mixed for 2 min, centrifuged at 4° C., 10,000 g for 10 min. Unknown plasma samples treatment: 25 μL of rat plasma containing drug was aspirated, 25 μL of methanol and 200 μL of internal standard solution were added sequentially, vortexed and mixed for 2 min, and then centrifuged at 4° C. and 10,000 g for 10 min. The supernatant was extracted for LC/MS/MS detection. Shimadzu liquid phase and Triple Quad TM 6500+AB mass spectrometry were utilized to establish a quantitative assay for the compounds to be tested. The pro-drug concentration in plasma was determined. The blood drug concentration-time curves were plotted, and the main pharmacokinetic parameters were calculated using the non-compartment model in winnonlin Phoenix software, and the detailed data were shown in Table 3.

Sequence of CDK6/CyclinD3 (Q00534 whole entry, species assumed): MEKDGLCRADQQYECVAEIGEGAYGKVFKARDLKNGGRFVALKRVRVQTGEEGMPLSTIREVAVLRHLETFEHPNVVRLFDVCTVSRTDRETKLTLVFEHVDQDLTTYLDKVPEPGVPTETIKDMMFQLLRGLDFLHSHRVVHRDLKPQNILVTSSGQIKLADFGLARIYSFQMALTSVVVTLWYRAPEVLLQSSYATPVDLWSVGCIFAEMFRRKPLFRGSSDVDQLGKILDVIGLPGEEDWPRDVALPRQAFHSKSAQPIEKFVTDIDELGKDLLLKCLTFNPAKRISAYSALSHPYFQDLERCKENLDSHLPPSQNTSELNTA
Sequence of CDK6/CyclinD3 (P30281 whole entry partner, species assumed): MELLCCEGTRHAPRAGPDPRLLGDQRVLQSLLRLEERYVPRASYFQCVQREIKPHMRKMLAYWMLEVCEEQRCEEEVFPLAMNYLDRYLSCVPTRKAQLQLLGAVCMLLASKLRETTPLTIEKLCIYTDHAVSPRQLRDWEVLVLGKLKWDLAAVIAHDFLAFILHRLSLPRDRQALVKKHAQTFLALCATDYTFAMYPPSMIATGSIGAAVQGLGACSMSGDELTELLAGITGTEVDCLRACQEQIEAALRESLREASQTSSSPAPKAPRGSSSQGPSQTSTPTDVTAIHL
Description for CDK4/CycD1: The tested compounds were subjected to CDK4 and CDK6 kinase IC50 values test.
• (1) Preparing a 1.3× enzyme solution containing enzyme, substrate and cofactor as shown below. • (2) Adding 15 μL of 1.3× enzyme solution to each well and incubating for 30 min at room temperature. • (3) Starting the reaction by adding 5 μL of 4×ATP solution, with each test well containing the listed components and a final volume of 20 μL. • (4) Incubating for 150 minutes and then stopping the reaction by adding 75 μL of buffer (containing 0.5 M EDTA). • (5) Reading the data from each test well by EZ for analysis.
Percentage inhibition was calculated using the read conversion ratio (CR) according to the formula below:
The wells treated with DMSO were used as positive control (positive control) and the wells without enzyme were used as negative control (negative control).

For `CN1CCCn2c1nc1c(F)cc(-c3nc(N[C@@H]4CCOC[C@H]4O)ncc3C(F)(F)F)cc12` [TB-41, (3S,4R)-4-((4-(9-fluoro-1-methyl-1,2,3,4-tetrahydrobenzo[4,5]imidazo[1,2-a]pyrimidin-7-yl)-5-(trifluoromethyl)pyrimidin-2-yl)amino)tetrahydro-2H-pyran-3-ol], the IC50 was over 500 nM on CDK6/CyclinD3, 500 to 2000 nM in data set [1], 500 to 2000 nM in data set [2] and 500 to 2000 nM in data set [3].
On to `CC(C)N1CCOc2c(F)cc(-c3nc(N[C@@H]4CCC[C@H](NS(C)(=O)=O)C4)ncc3Cl)cc21` [TA-17], for which the IC50 turned out to be 83.4 nM on CDK6/CyclinD3 and 22.7 nM at CDK4/CycD1.
On to `C[C@H]1CCN(C)c2nc3c(F)cc(-c4nc(Nc5ccncc5)ncc4Cl)cc3n21` [TB-137, (S)-5-chloro-4-(9-fluoro-1,4-dimethyl-1,2,3,4-tetrahydrobenzo[4,5]imidazo[1,2-a]pyrimidin-7-yl)-N-(pyridin-4-yl)pyrimidin-2-amine], for which the IC50 at CDK6/CyclinD3 was 95.2 nM; in data set [1], at most 500 nM; in data set [2], at most 500 nM; in data set [3], at most 500 nM; on CDK4/CycD1, 12.7 nM.
Take `CC(C)N1CCOc2c(F)cc(-c3nc(NC4CCCC(C(=O)N(C)C)C4)ncc3Cl)cc21` (stereo not shown) [TA-14, 3-((5-chloro-4-(8-fluoro-4-isopropyl-3,4-dihydro-2H-benzo[b][1,4]oxazin-6-yl)pyrimidin-2-yl)amino)-N,N-dimethylcyclohexane-1-carboxamide]: the half-maximal inhibitory concentration (IC50) is over 500 nM on CDK6/CyclinD3 and 69.4 nM on CDK4/CycD1.
`CC(C)n1c(N2CCOC2=O)nc2c(F)cc(-c3nc(N[C@@H]4CCOC[C@H]4O)ncc3C(F)(F)F)cc21` [TB-27]: the “HL—” value in data set [4] is reported as 3.69 h.
Consider `COC(=O)N1CCC[C@@H](Nc2ncc(Cl)c(-c3cc(F)c4c(c3)N(C(C)C)CCO4)n2)C1` [TA-10, methyl (R)-3-((5-chloro-4-(8-fluoro-4-isopropyl-3,4-dihydro-2H-benzo[b][1,4]oxazin-6-yl)pyrimidin-2-yl)amino)piperidine-1-carboxylate], for which the results for the 50% inhibitory concentration (IC50) at CDK6/CyclinD3 and on CDK4/CycD1 were 206 nM and 57.6 nM, respectively.
Take `CC(C)N1CCOc2c(F)cc(-c3nc(N[C@@H]4CCOC[C@H]4O)ncc3Cl)cc21` [TA-1]: the IC50 at CDK6/CyclinD3 is 23.6 nM; in data set [1], at most 500 nM; in data set [2], at most 500 nM; in data set [3], at most 500 nM; at CDK4/CycD1, 0.849 nM.
On to `CC(=O)N1CCC[C@@H](Nc2ncc(Cl)c(-c3cc(F)c4c(c3)N(C(C)C)CCO4)n2)C1` [TA-16, (R)-1-(3-((5-chloro-4-(8-fluoro-4-isopropyl-3,4-dihydro-2H-benzo[b][1,4]oxazin-6-yl)pyrimidin-2-yl)amino)piperidin-1-yl)ethan-1-one], for which the values for the IC50 at CDK6/CyclinD3 and at CDK4/CycD1 were 99.1 nM and 15.3 nM, respectively.
Consider `CC(C)N1C(=O)COc2c(F)cc(-c3nc(N[C@@H]4CCOC[C@H]4O)ncc3Cl)cc21` [TA-2, 6-(5-chloro-2-(((3S,4R)-3-hydroxytetrahydro-2H-pyran-4-yl)amino)pyrimidin-4-yl)-8-fluoro-4-isopropyl-2H-benzo[b][1,4]oxazin-3(4H)-one], for which the IC50 was 109 nM at CDK6/CyclinD3; at most 500 nM in data set [1]; at most 500 nM in data set [2]; 500 to 2000 nM in data set [3]; 42.2 nM on CDK4/CycD1.
Regarding `CC(C)N1CCOc2c(F)cc(-c3nc(NC4CCN(S(C)(=O)=O)CC4)ncc3Cl)cc21` [TA-11, 5-chloro-4-(8-fluoro-4-isopropyl-3,4-dihydro-2H-benzo[b][1,4]oxazin-6-yl)-N-(1-(methylsulfonyl)piperidin-4-yl)pyrimidin-2-amine], the IC50 at CDK6/CyclinD3 is 24.7 nM; in data set [1], at most 500 nM; in data set [2] it was at most 500 nM; in data set [3], at most 500 nM; at CDK4/CycD1 it was 7.19 nM.
`CC(C)N1CCOc2c(F)cc(-c3ccnc(N[C@@H]4CCOC[C@H]4O)n3)cc21` [TA-4, (3S,4R)-4-((4-(8-fluoro-4-isopropyl-3,4-dihydro-2H-benzo[b][1,4]oxazin-6-yl)pyrimidin-2-yl)amino)tetrahydro-2H-pyran-3-ol]: the half-maximal inhibitory concentration (IC50) is 116 nM at CDK6/CyclinD3; at most 500 nM in data set [1]; at most 500 nM in data set [2]; at most 500 nM in data set [3]; 10.4 nM on CDK4/CycD1.
Turning to `CC(C)C(=O)N(c1cc(F)cc(-c2nc(N[C@@H]3CCOC[C@H]3O)ncc2Cl)c1)C(C)C` [TA-20], the IC50 worked out at 319 nM at CDK6/CyclinD3 and 108 nM at CDK4/CycD1.
Take `CC(C)N1CCOc2c(F)cc(-c3nc(N[C@@H]4CCOC[C@H]4O)ncc3F)cc21` [TA-5, (3S,4R)-4-((5-fluoro-4-(8-fluoro-4-isopropyl-3,4-dihydro-2H-benzo[b][1,4]oxazin-6-yl)pyrimidin-2-yl)amino)tetrahydro-2H-pyran-3-ol]: the IC50 on CDK6/CyclinD3 is 30.2 nM; in data set [1], at most 500 nM; in data set [2], at most 500 nM; in data set [3] it was at most 500 nM; at CDK4/CycD1, 3.11 nM.
For the molecule `COc1ncc(-c2nc(N[C@@H]3CCOC[C@H]3O)ncc2F)c2c1CCC2` [TA-34, (3S,4R)-4-((5-fluoro-4-(1-methoxy-6,7-dihydro-5H-cyclopenta[c]pyridin-4-yl)pyrimidin-2-yl)amino)tetrahydro-2H-pyran-3-ol], the IC50 at CDK6/CyclinD3 worked out at 2580 nM; at CDK4/CycD1, 729 nM.
For `CC(C)N1CCOc2c(F)cc(-c3nc(NC4CCOCC4)ncc3F)cc21` [TA-8, 5-fluoro-4-(8-fluoro-4-isopropyl-3,4-dihydro-2H-benzo[b][1,4]oxazin-6-yl)-N-(tetrahydro-2H-pyran-4-yl)pyrimidin-2-amine], in that order: 67.3 nM and 21.4 nM.
On to `CC(C)N1CCOc2c(F)cc(-c3nc(NC4CCCC(C(=O)N(C)C)C4)ncc3F)cc21` (stereo not shown) [TA-7, 3-((5-fluoro-4-(8-fluoro-4-isopropyl-3,4-dihydro-2H-benzo[b][1,4]oxazin-6-yl)pyrimidin-2-yl)amino)-N,N-dimethylcyclohexane-1-carboxamide], for which the IC50 on CDK6/CyclinD3 was over 500 nM; in data set [1] it was at most 500 nM; in data set [2], at most 500 nM; in data set [3], at most 500 nM; on CDK4/CycD1, 17.7 nM.
For `CC(C)c1c(C(C)(C)O)nc2c(F)cc(-c3nc(N[C@@H]4CCOC[C@H]4O)ncc3Cl)cn12` [TA-27, (3S,4R)-4-((5-chloro-4-(8-fluoro-2-(2-hydroxypropan-2-yl)-3-isopropylimidazo[1,2-a]pyridin-6-yl)pyrimidin-2-yl)amino)tetrahydro-2H-pyran-3-ol], the figures for the IC50 at CDK6/CyclinD3 and at CDK4/CycD1 were 203 nM and 21.8 nM, respectively.
As to `CC(C)N1CCOc2c(F)cc(-c3nc(NC4CCN(S(C)(=O)=O)CC4)ncc3F)cc21` [TA-6, 5-fluoro-4-(8-fluoro-4-isopropyl-3,4-dihydro-2H-benzo[b][1,4]oxazin-6-yl)-N-(1-(methylsulfonyl)piperidin-4-yl)pyrimidin-2-amine], the 50% inhibitory concentration (IC50) at CDK6/CyclinD3 is 13.7 nM; in data set [1] it was at most 500 nM; in data set [2], at most 500 nM; in data set [3], at most 500 nM; on CDK4/CycD1, 4.29 nM.
With `COC(=O)N1CCC(Nc2ncc(Cl)c(-c3cc(F)c4nc5n(c4c3)CCCN5C)n2)CC1` [TB-93, methyl 4-((5-chloro-4-(9-fluoro-1-methyl-1,2,3,4-tetrahydrobenzo[4,5]imidazo[1,2-a]pyrimidin-7-yl)pyrimidin-2-yl)amino)piperidine-1-carboxylate], the IC50 at CDK6/CyclinD3 was over 500 nM; in data set [1], at most 500 nM; in data set [2], at most 500 nM; in data set [3], 500 to 2000 nM.
`CN1CCCn2c1nc1c(F)cc(-c3nc(NC4CCN(S(C)(=O)=O)CC4)ncc3Cl)cc12` [TB-43, 5-chloro-4-(9-fluoro-1-methyl-1,2,3,4-tetrahydrobenzo[4,5]imidazo[1,2-a]pyrimidin-7-yl)-N-(1-(methylsulfonyl)piperidin-4-yl)pyrimidin-2-amine]: the IC50 is 200 nM at CDK6/CyclinD3; at most 500 nM in data set [1]; at most 500 nM in data set [2]; at most 500 nM in data set [3]; 18.6 nM at CDK4/CycD1.

The IC50 is the concentration needed to halve the response being measured.
